Source: patent US20050065099A1, “Treatment of mitochondrial diseases” (priority 2003, published 2005)

Each compound was assayed on FRDA fibroblasts (assay: FRDA fibroblast assay for protection from oxidative stress). Details: Homo sapiens, 24 h preincubation, 1 mM BSO, compared to untreated FRDA fibroblasts, read-out: EC50 for reduction of cell death in FRDA fibroblasts.
Type: cell-based
Source text: A cellular assay using FRDA-patient derived fibroblasts (as described by Jauslin, M L et al, Human Molecular Genetics 11; 3055-3063 (2002)); is used to determine the cell protecting effect of the test compounds by analyzing survival of dermal fibroblasts taken from FRDA patients and unaffected normal donors under conditions of partial GSH depletion. Exposure of FRDA fibroblasts to BSO (L-buthionine (S,R)-sulfoximine) under conditions of restricted selenium causes depletion of cellular glutathione (GSH) and severe plasma membrane damage leading to cell death. Preincubation with the test compounds before the addition of BSO is used to determine if they can protect FRDA cells from BSO-mediated cell death.
Primary fibroblasts were derived from donors with a molecular diagnosis of FRDA and control donors with no mitochondrial disease. Lines F2, C2 and C3 were obtained from Coriell Cell Repositories (Camden, N.J., USA; catalog #'s GM04078, GM 08402 and GM08399, respectively). All cell types were diagnosed at the molecular level for intronic GAA triplet repeat length in the trataxin gene using a PCR-based method, according to methods known in the art. […] The cells were seeded in microtiter plates at a density of 4000 cells per 100 μl in growth medium consisting of 25% (v/v) M199 EBS and 64% (v/v) MEM EBS without phenol red (Bioconcept, Allschwil, Switzerland) supplemented with 10% (v/v) fetal calf serum (PAA Laboratories, Linz, Austria), 100 U/ml penicillin, 100 μg/ml streptomycin (PAA Laboratories, Linz, Austria), 10 μg/ml insulin (Sigma, Buchs, Switzerland), 10 μg/ml EGF (Sigma, Buchs, Switzerland), 10 μg/ml bFGF (PreproTech, Rocky Hill, N.J., USA) and 2 mM glutamine (Sigma, Buchs, Switzerland). The cells were incubated in the presence of the various test compounds for 24 h before addition of 1 mM BSO (L-buthionine (S,R)-sulfoximine).
Cell viability was measured after the first signs of toxicity appeared in the BSO-treated controls (typically after 16-48 h). The cells were stained for 60 min at room temperature in PBS with 1.2 μm calceinAM and 4 μm ethidium homodimer (Live/Dead assay, Molecular Probes, Eugene, Oreg., USA). Fluorescence intensity was measured with a Gemini Spectramax XS spectrofluorimeter (Molecular Devices, Sunnyvale, Calif., USA) using excitation and emission wavelengths of 485 and 525 nm, respectively.
With `Cc1c(O)cc2c(c1C)OC(C)(CCCC1SC(=O)NC1=O)CC2` (stereo not shown) [5-[3-(6-Hydroxy-2,7,8-trimethyl-chroman-2-yl)-propyl]-thiazolidine-2,4-dione] the EC50 was 0.01 to 6 µM. `CC(C)=CCc1c(O)c(C)c(C)c2c1CCC(C)(CCCl)O2` (stereo not shown) [2-(2-Chloro-ethyl)-2,7,8-trimethyl-5-(3-methyl-but-2-enyl)-chroman-6-ol] showed an EC50 of 0.01 to 6 µM. `Cc1c(O)cc2c(c1C)OC(C)(CCCl)CC2` (stereo not shown) [2-(2-chloro-ethyl)-2,7,8-trimethyl-chroman-6-ol] gave an EC50 of 0.01 to 6 µM. With `CC(C)=CCCC(C)=CCCC(C)=CCCC1(C)CCc2cc(O)cc(C)c2O1` (stereo not shown) [Delta tocotrienol, 2,8-dimethyl-2-(4,8,12-trimethyl-trideca-3,7,11-trienyl)-chroman-6-ol] the EC50 was 0.01 to 6 µM. `Cc1c(O)cc2c(c1C)OC(C)(CCC(=O)NC(CCC(=O)NC(CS)C(=O)NCC(=O)O)C(=O)O)CC2` (stereo not shown) [4-[1-(Carboxymethyl-carbamoyl)-2-mercapto-ethylcarbamoyl]-2-[3-(6-hydroxy-2,7,8-trimethyl-chroman-2-yl)-propionylamino]-butyric acid] gave an EC50 of 0.01 to 6 µM. In the case of `Cc1c(C)c2c(c(CSCC(NC(=O)CCC(N)C(=O)O)C(=O)NCC(=O)O)c1O)CCC(C)(CCCC(C)CCCC(C)CCCC(C)C)O2` (stereo not shown) [2-Amino-4-{1-(carboxymethyl-carbamoyl)-2-[6-hydroxy-2,7,8-trimethyl-2-(4,8,12-trimethyl-tridecyl)-chroman-5-ylmethylsulfanyl]-ethylcarbamoyl}-butyric acid], the EC50 is reported as 0.01 to 6 µM. In the case of `Cc1cc(O)cc2c1OC(C)(CCCC(C)CCCC(C)CCCC(C)C)CC2` (stereo not shown) [Delta tocopherol, 2,8-dimethyl-2-(4,8,12-trimethyl-tridecyl)-chroman-6-ol], the EC50 is reported as 0.01 to 6 µM. `Cc1c(O)cc2c(c1C)OC(C)(CCCC(C)CCCC(C)CCCC(C)C)CC2` (stereo not shown) [Gamma-tocopherol, 2,7,8-trimethyl-2-(4,8,12-trimethyltridecyl)-6-chromanol] showed an EC50 of 0.01 to 6 µM. In the case of `Cc1c(C)c2c(c(CCC(C)C)c1O)CCC(C)(C)O2` [2,2,7,8-Tetramethyl-5-(3-methyl-butyl)-chroman-6-ol], the EC50 is reported as 0.01 to 6 µM. `CC(C)=CCCC(C)=CCCC(C)=CCCC1(C)CCc2cc(O)c(C)c(C)c2O1` (stereo not shown) [Gamma-tocotrienol, 2,7,8-trimethyl-2-(4,8,12-trimethyl-trideca-3,7,11-trienyl)-chroman-6-ol] showed an EC50 of 0.01 to 6 µM.

What follows are compounds tested on dopaminergic neuronal cell line (assay: High glutamate-induced oxidative stress assay (HGOS)). Details: Mus musculus; 30 mM glutamate, 16 hrs, Cell Tracker Green; read-out: EC50 for protection against HGOS cell injury and cell death.
Type: cell-based
Source text: Protection against redox stress can be further evaluated in cell culture using high glutamate induced oxidative stress (HGOS) in mouse dopaminergic cell lines. The cytotoxic effect of glutamate is not due to excitotoxicity, as this cell line is devoid of inotropic glutamate receptors. Rather, the glutamate-induced toxicity of dopaminergic cells is associated with an inhibition of cystine transport which subsequently leads to depletion of intracellular glutathione (GSH) levels (Murphy T. H., et al. Neuron 2, 1547-1558, 1989), activation of neuronal 12-lipoxygenase (Li, Y. et al., Neuron 19,453-463, 1997), increased ROS production (Tan S. et al., J. Cell Biol. 141, 1423-1432, 1998) and elevated intracellular Ca^2+ (Li, Y. et al., see supra). Some molecules were measured for their ability to protect such cells against glutamate-induced stress and the assay is detailed in Examples.
This procedure was used to induce high glutamate-induced oxidative stress (HGOS) in a dopaminergic neuronal cell line. Using this assay the potency and efficacy of test articles against HGOS neuronal cell injury and cell death was established in a high throughput manner.
The cells were seeded into 96-well plates at a density of 2000 per well and left to grow for 72 hours in a 33° C. incubator with 5% CO2 in air atmosphere. The passage number of the cells for each assay experiment were no later than p11 in order to minimize experimental variation.
All compounds were dissolved in DMEM-No Glu containing 1 mM glucose, 30 mM glutamate and 1× Pen/Strep. DMEM-No Glu with 1 mM glucose and 1×P/S was used as the negative control, DMEM-No Glucose with 1 mM glucose, […] was used as a positive control and 100 μM Glutathione was added to the positive control as a standard. All of the procedures for this involving the making and dilution of compounds were performed using aseptic conditions and with minimal light.
The plates were removed from the incubator and examined under the microscope for morphological appearance and density. Using an aseptic technique and an 8-channel aspirator the media was carefully removed from the cells and replaced with 200 μl of 1×HBSS. This was done as quickly as possible to prevent the cells drying out. The plates were then placed in the humidified 37° C. incubators of the Biomek 2000 Side Loader. Four plates were washed at a time so as to minimize the time that the cells were sitting in 1×HBSS prior to addition of the compound test solution.
The Beckman Biomek workstations were used to load the compounds and controls from the mother plates onto the cell plates that were prewashed with HBSS under sterile conditions. The plates were incubated in the upper HTS incubator at 37° C. in 5% CO2 for exactly 16 hrs. The following day, using the Beckman Biomek workstations, the plates were removed from the incubator. Using Cell Tracker Addition, the compounds were removed from the plates, washed once with […] of pre-warmed 1×HBSS and then 100 μL of 5 μM Cell Tracker Green was added to each well. The plates were incubated at 37° C. for 30 min to allow the dye to enter the cell and be cleaved by the esterases. After washing the cells twice with prewarmed 1×HBSS, the plates were read with the 485 excitation; 538 emission filter pair on a Fluoroskan.
`Cc1c(O)cc2c(c1C)OC(C)(CCCC1SC(=O)NC1=O)CC2` (stereo not shown) [5-[3-(6-Hydroxy-2,7,8-trimethyl-chroman-2-yl)-propyl]-thiazolidine-2,4-dione] gave an EC50 of no more than 5 µM. In the case of `CC(C)=CCc1c(O)c(C)c(C)c2c1CCC(C)(CCCl)O2` (stereo not shown) [2-(2-Chloro-ethyl)-2,7,8-trimethyl-5-(3-methyl-but-2-enyl)-chroman-6-ol], the EC50 is reported as no more than 5 µM. `CC(=O)N(C)CC1(C)CCc2c(C)c(O)c(C)c(C)c2O1` (stereo not shown) [N-(6-Hydroxy-2,5,7,8-tetramethyl-chroman-2-ylmethyl)-N-methyl-acetamide] was tested, and the EC50 was no more than 5 µM. For `Cc1c(O)cc2c(c1C)OC(C)(CCCl)CC2` (stereo not shown) [2-(2-chloro-ethyl)-2,7,8-trimethyl-chroman-6-ol], the EC50 was no more than 5 µM. With `Cc1c(C)c2c(c(C)c1O)C=CC(C)(C)O2` [2,2,5,7,8-Pentamethyl-2H-chromen-6-ol] the EC50 was no more than 5 µM. In the case of `Cc1c(C)c2c(c(C)c1O)CCC(C)(C(=O)N1CCNCC1)O2` (stereo not shown) [(6-Hydroxy-2,5,7,8-tetramethyl-chroman-2-yl)-piperazin-1-yl-methanone], the EC50 is reported as no more than 5 µM. Work on `Cc1c(C)c2c(c(CN3CCN(Cc4ccccc4)CC3)c1O)CCC(C)(CCCC(C)CCCC(C)CCCC(C)C)O2` (stereo not shown) [5-(4-Benzyl-piperazin-1-ylmethyl)-2,7,8-trimethyl-2-(4,8,12-trimethyl-tridecyl)-chroman-6-ol] yielded an EC50 of no more than 5 µM. For `Cc1c(O)c(C)c([N+](=O)[O-])c2c1CCC(C)(C)O2` [2,2,5,7-Tetramethyl-8-nitro-chroman-6-ol], the EC50 was no more than 5 µM. `Cc1cc(O)c(C)c2c1OC(C)(C)CC2` [2,2,5,8-Tetramethyl-chroman-6-ol] showed an EC50 of no more than 5 µM. Compound `C#CC1(C)CCc2c(C)c(O)c(C)c(C)c2O1` (stereo not shown) [2-Ethynyl-2,5,7,8-tetramethyl-chroman-6-ol] has an EC50 of no more than 5 µM. `COc1cccc2c(O)cc3c(c12)OC(C)(C)CC3` [10-Methoxy-2,2-dimethyl-3,4-dihydro-2H-benzo[h]chromen-6-ol] was tested, and the EC50 was no more than 5 µM. `Cc1c(C)c2c(c(CO)c1O)CCC(C)(C)O2` [5-Hydroxymethyl-2,2,7,8-tetramethyl-chroman-6-ol] showed an EC50 of no more than 5 µM. For `Cc1c(O)cc2c(c1C)OC1(C)CCCC2C1` (stereo not shown) [5,6,9-Trimethyl-8-oxa-tricyclo[7.3.1.0^2,7]trideca-2,4,6-trien-4-ol], the EC50 was no more than 5 µM. `Cc1c(O)cc2c(c1C)OC(C)(C)CC2` [2,2,7,8-Tetramethyl-chroman-6-ol] gave an EC50 of no more than 5 µM. For `Cc1c(C)c2c(c(CC(CO)CO)c1O)CCC(C)(C)O2` [2-(6-Hydroxy-2,2,7,8-tetramethyl-chroman-5-ylmethyl)-propane-1,3-diol], the EC50 was no more than 5 µM. `Cc1c(C)c2c(c(C)c1O)CCC(C)(CO)O2` (stereo not shown) [2-Hydroxymethyl-2,5,7,8-tetramethyl-chroman-6-ol] was tested, and the EC50 was no more than 5 µM. Work on `Cc1c(C)c2c(c(CCC(C)C)c1O)CCC(C)(C)O2` [2,2,7,8-Tetramethyl-5-(3-methyl-butyl)-chroman-6-ol] yielded an EC50 of no more than 5 µM. `Cc1c(C)c2c(c(CCO)c1O)CCC(C)(C)O2` [5-(2-Hydroxy-ethyl)-2,2,7,8-tetramethyl-chroman-6-ol] gave an EC50 of no more than 5 µM. With `Cc1c(C)c2c(c(Br)c1O)CCC(C)(CCC(=O)O)O2` (stereo not shown) [3-(5-Bromo-6-hydroxy-2,7,8-trimethyl-chroman-2-yl)-propionic acid] the EC50 was no more than 5 µM. With `Cc1c(O)cc2c(c1C)OC(C)(CCCCl)CC2` (stereo not shown) [2-(3-Chloro-propyl)-2,7,8-trimethyl-chroman-6-ol] the EC50 was no more than 5 µM. For `Cc1c(O)c(C)c2c(c1C=O)OC(C)(C)CC2` [6-Hydroxy-2,2,5,7-tetramethyl-chroman-8-carbaldehyde], the EC50 was no more than 5 µM. With `Cc1c(C)c2c(c(C)c1O)CCC(C)(C(=N)N)O2` (stereo not shown) [6-Hydroxy-2,5,7,8-tetramethyl-chroman-2-carboxamidine] the EC50 was no more than 5 µM. `Cc1c(C)c2c(c(C)c1O)CCC(C)(COCC(=O)Nc1cccc(C(F)(F)F)c1)O2` (stereo not shown) [2-(6-Hydroxy-2,5,7,8-tetramethyl-chroman-2-ylmethoxy)-N-(3-trifluoromethyl-phenyl)-acetamide] gave an EC50 of no more than 5 µM. `Cc1c(C)c2c(c(C(C)O)c1O)CCC(C)(C)O2` (stereo not shown) [5-(1-Hydroxy-ethyl)-2,2,7,8-tetramethyl-chroman-6-ol] was tested, and the EC50 was no more than 5 µM.
